In patent US20090253650A1, “Teat antiseptic prepared from polysaccharide gel with bactericidal and immuno-stimulating activity isolated from durian fruit-rind” (priority 2008, published 2009):

Test system: peritoneal leukocyte
Assay: Peritoneal leukocyte count in mice after intraperitoneal injection
Type: in vivo
Settings: 3% thioglycollate (positive control)

thioglycollate was tested, and the “Number of Lymphocyte (mean ± S.E.)” value was 0.86 ± 0.14 ×10^6 cell/ml.
